The target in one experiment is T1, RIPK1 (Homo sapiens, UniProt Q13546).
T1 sequence (Q13546 1-671): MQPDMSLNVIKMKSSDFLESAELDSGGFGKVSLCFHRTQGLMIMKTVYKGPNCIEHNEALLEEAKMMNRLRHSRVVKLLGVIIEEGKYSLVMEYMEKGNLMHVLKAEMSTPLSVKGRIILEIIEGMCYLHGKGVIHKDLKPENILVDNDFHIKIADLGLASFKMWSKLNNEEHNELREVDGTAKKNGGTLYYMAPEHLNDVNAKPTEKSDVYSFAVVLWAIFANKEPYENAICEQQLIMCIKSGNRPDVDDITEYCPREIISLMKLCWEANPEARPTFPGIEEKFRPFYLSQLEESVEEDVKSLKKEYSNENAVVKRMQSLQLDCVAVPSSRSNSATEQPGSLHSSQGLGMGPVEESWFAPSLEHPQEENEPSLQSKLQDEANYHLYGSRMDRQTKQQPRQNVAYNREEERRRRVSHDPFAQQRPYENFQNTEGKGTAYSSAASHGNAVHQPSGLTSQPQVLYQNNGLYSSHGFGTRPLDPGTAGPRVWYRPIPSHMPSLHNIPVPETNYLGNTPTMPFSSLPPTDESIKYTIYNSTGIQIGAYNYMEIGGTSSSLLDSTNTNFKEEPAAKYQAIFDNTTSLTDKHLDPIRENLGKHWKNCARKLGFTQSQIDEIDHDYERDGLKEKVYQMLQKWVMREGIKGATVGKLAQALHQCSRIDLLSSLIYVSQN
The experiment is described as follows: RIPK1 ADP-Glo biochemical kinase assay. Particulars: read-out: RIPK1 ADP-Glo Kinase (IC50). The protocol: In this example, compounds of the disclosure were evaluated using a biochemical assay using the ADP-Glo™ technology.
ADP-Glo™ (Promega, Madison, WI, USA) reagents were thawed at ambient temperature. Kinase Detection Reagent was prepared by mixing kinase detection buffer with the lyophilized kinase detection substrate.
A […] stock volume of 5× Reaction Kinase Buffer was made by mixing 1000 μl of 1M MgCl2, 500 μl of 1M Tris-HCL pH7.4, 0.5 mg/ml (25 mg) of BSA, and 3475 μl of distilled H2O. A 3 ml 2× working stock volume of Reaction Kinase Buffer was made containing a final concentration of 100 μM DTT and 4 mM MnCl2.
Components of RIPK1 enzyme (Rigel Pharmaceuticals, South San Francisco, CA, USA) were thawed on ice. Diluted RIPK1 was prepared in 1× Kinase Reaction Buffer (diluted from 2× buffer) to 31 ng/well.
1.0 ul of diluted compound was added to a 384 well plate in duplicate. […] The final reaction volume was 5.0 μl.
The plate was quickly centrifuged and the reaction was incubated at 30° C. for 30 minutes. Adding 5 μl of ADP-Glo™ terminated the reaction. The plate was quickly centrifuged and the reaction was incubated at room temperature for 40 minutes. Kinase Detection Reagent was then added and incubated at room temperature for 30 minutes. The relative light unit (RLU) of kinase reaction was determined by luminescent (Luminescence 0.1 s) using a Wallac Victor2 Luminometer (PerkinElmer, Waltham, MA, USA).
For orientation: In ADP-Glo the light output rises with the ADP produced.

The next experiment has as its system U937 cells. Kind of experiment: U937 cell necroptosis assay (TNFa + zVAD, CellTiter-Glo recovery). It counts as cell-based. To be noted: Homo sapiens, U-937, 18 h, TNFa 2 ng/mL + zVAD-fmk, read-out: U937 Zvad TNF CTG Recovery, U937, TNFa + zVAD (IC50). The protocol: (§1) In this example, U937 and L929 cells were exposed to compounds of the present disclosure and a cell necroptosis assay was conducted to evaluate the compounds' activity against human RIP1 and murine RIP1.
(§2) U937 and L929 cells were obtained from the American Type Culture Collection (Manassas, VA, USA). Both cells were maintained in logarithmic growth phase in complete RPMI 1640 media (Sigma, ST Louis, MO, USA) supplemented with 10% fetal bovine serum (Sigma, ST Louis, MO, USA) at 37° C. with 5% CO2. For necroptosis assay, L929 cells were plated for 18 h in 100 μL/well medium at 10K cells/well in Costar 96-well black clear-bottom plates (Fisher Scientific, Hampton, NH, USA); U937 cells were plated on the day of the assay in 50 μL/well medium containing 60 uM zVAD-fmk (Lonza, Basel, Switzerland) at 50K cells/well. Medium from L929 cells were removed from the 96-well plates and replaced with 50 μL/well new medium containing 40 uM zVAD-fmk. Each compound of the present disclosure evaluated in this example was serially diluted in DMSO from 2.5 mM in 4-fold dilutions, and then diluted 1:125 in complete medium. 50 μL/well 2× of the compound was then added to the cells in the plates. The cells were pre-incubated with the compound for 1 hour at 37° C. with 5% CO2 and before addition of 10 μL/well 11×TNFa (Peprotech, Rocky Hill, NJ, USA) to give a final concentration of 2 ng/mL for TNFa. The relative amount of necroptosis cells was determined by luminescent using a Wallac Victor2 Luminometer (PerkinElmer, Waltham, MA, USA) and a CellTiter-Glo® Luminescent Cell Viability Reagent Assay (Promega, Madison, WI, USA) added per manufacturer instructions after 18 hours of TNFa stimulation at 37° C. with 5% CO2. This example establishes that embodiments of the compounds described herein have unexpectedly potent activity against human RIP1 and murine RIP1, which allows their assessment in in vivo mouse models of disease.
In general terms: ATP-based viability assays read luminescence as a measure of living cells.

In another experiment the test system is L929 cells. Kind of experiment: L929 cell necroptosis assay (TNFa + zVAD, CellTiter-Glo recovery). It counts as cell-based, murine. Particulars: Mus musculus, L929, 18 h, TNFa 2 ng/mL + zVAD-fmk, read-out: L929-CTG-recovery, L929, TNFa + zVAD (IC50). The method, then: as §1, §2

A word on the IC50: it is the midpoint of a concentration-inhibition curve. For `Cc1ccc(Oc2ccnc(C(=O)N[C@H]3COc4ccc(C#CC5(O)COC5)cc4N(C)C3=O)c2)c(C)n1` [I-79, (S)-4-((2,6-dimethylpyridin-3-yl)oxy)-N-(7-((3-hydroxyoxetan-3-yl)ethynyl)-5-methyl-4-oxo-2,3,4,5-tetrahydrobenzo[b][1,4]oxazepin-3-yl)picolinamide], the IC50 came to 67.2 nM on RIPK1, 182 nM in the experiment on U937 cells and 4330 nM in the experiment on L929 cells.

Turning to `CN1C(=O)[C@@H](NC(=O)n2cc(Cc3cccc(F)n3)cn2)COc2ccc(C#CC3(O)COC3)cc21` [I-32, (S)-4-((6-Fluoropyridin-2-yl)methyl)-N-(7-((3-hydroxyoxetan-3-yl)ethynyl)-5-methyl-4-oxo-2,3,4,5-tetrahydrobenzo[b][1,4]oxazepin-3-yl)-1H-pyrazole-1-carboxamide], the IC50 at RIPK1 was determined as 16.2 nM; with U937 cells, 16.3 nM; with L929 cells, 682 nM.

Consider `CN1C(=O)[C@@H](NC(=O)n2cc(Cc3cccc(F)n3)cn2)CCc2ccc(C#CC3(O)COC3)cc21` [I-113, (S)-4-((6-Fluoropyridin-2-yl)methyl)-N-(8-((3-hydroxyoxetan-3-yl)ethynyl)-1-methyl-2-oxo-2,3,4,5-tetrahydro-1H-benzo[b]azepin-3-yl)-1H-pyrazole-1-carboxamide], for which the values for the IC50 on RIPK1, in the experiment on U937 cells and with L929 cells were 11.8 nM, 1.3 nM and 37 nM, respectively.

Consider `Cc1cccc(Cc2cnn(C(=O)N[C@H]3COc4ccc(C#CC5COC5)cc4N(C)C3=O)c2)n1` [I-109, (S)—N-(5-Methyl-7-(oxetan-3-ylethynyl)-4-oxo-2,3,4,5-tetrahydrobenzo[b][1,4]oxazepin-3-yl)-4-((6-methylpyridin-2-yl)methyl)-1H-pyrazole-1-carboxamide], for which the IC50 amounted to 26.3 nM on RIPK1, 188 nM in the experiment with U937 cells and 3510 nM with L929 cells.

Take `CN1C(=O)[C@@H](NC(=O)n2cc(Cc3ccc(F)nc3)cn2)COc2ccc(C#CC(C)(C)O)cc21` [I-16, (S)-4-((6-Fluoropyridin-3-yl)methyl)-N-(7-(3-hydroxy-3-methylbut-1-yn-1-yl)-5-methyl-4-oxo-2,3,4,5-tetrahydrobenzo[b][1,4]oxazepin-3-yl)-1H-pyrazole-1-carboxamide]: the IC50 turned out to be 37.9 nM on RIPK1, 17.2 nM in the experiment on U937 cells and 2390 nM with L929 cells.

Take `CCc1nc(Cc2ccnc(C(=O)N[C@H]3COc4ccc(C#CC(C)(C)O)cc4N(C)C3=O)c2)cs1` [I-98, (S)-4-((2-ethylthiazol-4-yl)methyl)-N-(7-(3-hydroxy-3-methylbut-1-yn-1-yl)-5-methyl-4-oxo-2,3,4,5-tetrahydrobenzo[b][1,4]oxazepin-3-yl)picolinamide]: the concentration for half-maximal inhibition (IC50) stood at 24 nM on RIPK1, 15.5 nM in the experiment on U937 cells and 111 nM with L929 cells.

For `CN1C(=O)[C@@H](NC(=O)c2cc(Cc3cscn3)ccn2)COc2ccc(C#CC(C)(C)O)cc21` [I-77, (S)—N-(7-(3-hydroxy-3-methylbut-1-yn-1-yl)-5-methyl-4-oxo-2,3,4,5-tetrahydrobenzo[b][1,4]oxazepin-3-yl)-4-(thiazol-4-ylmethyl)picolinamide], the IC50 at RIPK1 came to 21.8 nM; with U937 cells it was 62.2 nM; in the experiment on L929 cells, 724 nM.

Turning to `CN1C(=O)[C@@H](NC(=O)n2cc(Cc3cccc(F)n3)cn2)COc2ccc(C#CC(C)(C)C)cc21` [I-106, (S)—N-(7-(3,3-Dimethylbut-1-yn-1-yl)-5-methyl-4-oxo-2,3,4,5-tetrahydrobenzo[b][1,4]oxazepin-3-yl)-4-((6-fluoropyridin-2-yl)methyl)-1H-pyrazole-1-carboxamide], the IC50 at RIPK1 is 22.4 nM; with U937 cells it was 4.3 nM; in the experiment with L929 cells it was 750 nM.

Turning to `CN1C(=O)[C@@H](NC(=O)c2cc(Cc3cccnc3F)ccn2)COc2ccc(C#CC3CCOCC3)cc21` [I-51, (S)-4-((2-fluoropyridin-3-yl)methyl)-N-(5-methyl-4-oxo-7-((tetrahydro-2H-pyran-4-yl)ethynyl)-2,3,4,5-tetrahydrobenzo[b][1,4]oxazepin-3-yl)picolinamide], the values for the IC50 on RIPK1, with U937 cells and in the experiment with L929 cells were 18.3 nM, 0.4 nM and 9.6 nM, respectively.

Take `Cc1ccc(Cc2ccnc(C(=O)N[C@H]3COc4ccc(C#CC(C)(C)O)cc4N(C)C3=O)c2)cn1` [I-72, (S)—N-(7-(3-hydroxy-3-methylbut-1-yn-1-yl)-5-methyl-4-oxo-2,3,4,5-tetrahydrobenzo[b][1,4]oxazepin-3-yl)-4-((6-methylpyridin-3-yl)methyl)picolinamide]: the IC50 on RIPK1 turned out to be 33.1 nM; with U937 cells, 190 nM; with L929 cells, 3010 nM.

For the molecule `CN1C(=O)[C@@H](NC(=O)c2cc(Oc3cncc(F)c3)ccn2)COc2ccc(C#CC3(O)CCC3)cc21` [I-100, (S)-4-((5-fluoropyridin-3-yl)oxy)-N-(7-((1-hydroxycyclobutyl)ethynyl)-5-methyl-4-oxo-2,3,4,5-tetrahydrobenzo[b][1,4]oxazepin-3-yl)picolinamide], the IC50 on RIPK1 stood at 28 nM; with U937 cells, 4.1 nM; with L929 cells, 1100 nM.

As for `CN1C(=O)[C@@H](NC(=O)c2cc(Cc3cccnc3)ccn2)COc2ccc(C#CC(C)(C)O)cc21` [I-61, (S)—N-(7-(3-hydroxy-3-methylbut-1-yn-1-yl)-5-methyl-4-oxo-2,3,4,5-tetrahydrobenzo[b][1,4]oxazepin-3-yl)-4-(pyridin-3-ylmethyl)picolinamide], the IC50 at RIPK1 stood at 24.3 nM; with U937 cells it was 19.2 nM; with L929 cells, 2420 nM.

In the case of `CN1C(=O)[C@@H](NC(=O)n2cc(Cc3cccnc3F)cn2)COc2ccc(C#CC3(O)COC3)cc21` [I-47, (S)-4-((2-Fluoropyridin-3-yl)methyl)-N-(7-((3-hydroxyoxetan-3-yl)ethynyl)-5-methyl-4-oxo-2,3,4,5-tetrahydrobenzo[b][1,4]oxazepin-3-yl)-1H-pyrazole-1-carboxamide], the concentration for half-maximal inhibition (IC50) on RIPK1 came to 17.5 nM; in the experiment on U937 cells, 40.8 nM; in the experiment on L929 cells, 2900 nM.

For the molecule `CN1C(=O)[C@@H](NC(=O)c2cc(Cc3ccccn3)ccn2)COc2ccc(C#CC3(O)COC3)cc21` [I-64, (S)—N-(7-((3-hydroxyoxetan-3-yl)ethynyl)-5-methyl-4-oxo-2,3,4,5-tetrahydrobenzo[b][1,4]oxazepin-3-yl)-4-(pyridin-2-ylmethyl)picolinamide], the IC50 on RIPK1 is 30.7 nM; with U937 cells, 67.9 nM; in the experiment on L929 cells, 767 nM.
